Results published in US10774051B2, “6-membered heterocyclic derivatives and pharmaceutical composition comprising the same” (Shionogi & Co., Ltd., priority 2015, dated 2020).
Where two headings read alike, the source gives them in different places.

Target: human P2X7 receptor (Homo sapiens, UniProt Q99572, R270H/Y155H)
Assay: Evaluation of human P2X7 receptor inhibitory activity (Yo-Pro uptake, BzATP stimulation, FLIPR TETRA)
Type: cell-based
Conditions: 1321N1 cells stably expressing human P2X7 receptor, BzATP stimulation, Yo-Pro uptake
Summary of the method: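 1321N1 cells stably expressing human P2X7 (T606C/G952A SNP variant), in HBSS buffer pH 7.4-7.5 with Yo-Pro, stimulated with BzATP; compound added 8 min after agonist. Fluorescence followed for 20 min on FLIPR; max-minus-min change gave % inhibition, IC50 by logistic fit.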

[1] = read-out: IC50 (antagonistic activity for the human P2X7 receptor), class symbol
[2] = read-out: IC50 (antagonistic activity for the human P2X7 receptor)

Structure (SMILES)	IC50 [1]	IC50 [2]
COCc1cccc(Nc2nc(=O)c(OC)cn2Cc2ccccc2)c1C [Compound I-0352]	100 to 500 nM	–
COCc1cccc(Nc2nc(=O)c(OC)cn2Cc2ccc(F)c(Cl)c2)c1C [Compound I-0353]	10 to 100 nM	–
COc1cn(Cc2cc(F)cc(F)c2)c(Nc2cc(C)c(OC(F)F)cc2C)nc1=O [Compound I-0355]	< 10 nM	–
COCc1ccccc1Nc1nc(=O)c(OC)cn1Cc1ccc(F)c(Cl)c1 [Compound I-0356]	100 to 500 nM	–
COc1cn(Cc2ccccc2)c(Nc2cc(C)c(C)cc2C)nc1=O [Compound I-0357]	500 to 1000 nM	–
COc1cn(Cc2ccc(F)c(Cl)c2)c(Nc2cc(C)c(C)cc2C)nc1=O [Compound I-0358]	–	160 nM
COc1cn(Cc2ccccc2)c(Nc2cc(F)c(F)cc2C)nc1=O [Compound I-0359]	500 to 1000 nM	–
COc1cn(Cc2ccc(F)c(Cl)c2)c(Nc2cc(F)c(F)cc2C)nc1=O [Compound I-0360]	10 to 100 nM	–
CCc1c(Nc2nc(=O)c(OC)cn2Cc2ccccc2)cc(OC)cc1OC [Compound I-0361]	< 10 nM	–
CCc1c(Nc2nc(=O)c(OC)cn2Cc2cccc(Cl)c2)cc(OC)cc1OC [Compound I-0362]	< 10 nM	–
CCc1c(Nc2nc(=O)c(OC)cn2Cc2ccc(F)c(Cl)c2)cc(OC)cc1OC [Compound I-0363]	< 10 nM	–
COc1cn(Cc2ccccc2)c(Nc2ccc(OC(F)F)cc2C)nc1=O [Compound I-0364]	100 to 500 nM	–
Cc1cc2c(cc1Nc1nc(=O)c(F)cn1Cc1ccccc1)OCCO2 [Compound I-0366]	–	35 nM
Cc1cc2c(cc1Nc1nc(=O)c(F)cn1Cc1ccc(F)cc1)OCCO2 [Compound I-0367]	–	13 nM
Cc1cc2c(cc1Nc1nc(=O)c(F)cn1Cc1cccc(Cl)c1)OCCO2 [Compound I-0368]	10 to 100 nM	–
Cc1cc2c(cc1Nc1nc(=O)c(F)cn1Cc1ccc(F)c(Cl)c1)OCCO2 [Compound I-0369]	< 10 nM	–
Cc1cc2c(cc1Nc1nc(=O)c(Cl)cn1Cc1ccccc1)OCCO2 [Compound I-0370]	–	47 nM

Structure (SMILES)	IC50 [1]	IC50 [2]
COc1cc(C)cc(Nc2nc(=O)c(OC)cn2Cc2cc(F)cc(F)c2)c1C [Compound I-0371]	< 10 nM	–
COc1cn(Cc2cccc(Cl)c2)c(Nc2ccc(C)cc2C)nc1=O [Compound I-0374]	10 to 100 nM	–
COc1cn(Cc2ccc(F)cc2)c(Nc2ccc(C)cc2C)nc1=O [Compound I-0375]	10 to 100 nM	–
COc1cn(Cc2ccc(F)c(Cl)c2)c(Nc2ccc(C)cc2C)nc1=O [Compound I-0376]	< 10 nM	–
COc1cn(Cc2cc(F)cc(F)c2)c(Nc2cc(C)c(C)cc2C)nc1=O [Compound I-0377]	< 10 nM	–
COc1cn(Cc2cc(F)cc(F)c2)c(Nc2cc(C)c(Cl)cc2C)nc1=O [Compound I-0378]	< 10 nM	–
COc1cn(Cc2ccc(F)c(Cl)c2)c(Nc2cc(-c3nnco3)ccc2C)nc1=O [Compound I-0379]	< 10 nM	–
Cc1ccc(-c2nnco2)cc1Nc1nc(=O)c(F)cn1Cc1ccc(F)c(F)c1 [Compound I-0380]	10 to 100 nM	–
COc1cn(Cc2cc(F)cc(Cl)c2)c(Nc2cc(C)c(C)cc2C)nc1=O [Compound I-0381]	< 10 nM	–
COc1cn(Cc2ccccc2)c(Nc2ccccc2SC)nc1=O [Compound I-0382]	–	350 nM
CCOc1cc(C)c(Nc2nc(=O)c(OC)cn2Cc2cc(F)cc(F)c2)cc1C [Compound I-0383]	< 10 nM	–
CCOc1cc(C)c(Nc2nc(=O)c(OC)cn2Cc2cc(F)cc(Cl)c2)cc1C [Compound I-0384]	–	10 nM
COc1cn(Cc2cc(F)cc(Cl)c2)c(Nc2cc(C)c(Cl)cc2C)nc1=O [Compound I-0385]	10 to 100 nM	–
COc1cn(Cc2ccccc2)c(Nc2cc(Br)ccc2C)nc1=O [Compound I-0386]	10 to 100 nM	–
CCc1ccc(Cl)cc1Nc1nc(=O)c(OC)cn1Cc1cccc(Cl)c1 [Compound I-0387]	10 to 100 nM	–
CCc1ccc(Cl)cc1Nc1nc(=O)c(OC)cn1Cc1ccc(F)cc1 [Compound I-0388]	10 to 100 nM	–
CCc1ccc(Cl)cc1Nc1nc(=O)c(OC)cn1Cc1ccc(F)c(Cl)c1 [Compound I-0389]	< 10 nM	–
